Data on two compounds can be found in US20230295096A1, “PYRAZOLE CARBOXAMIDE COMPOUNDS FOR TREATMENT OF HBV” (ASSEMBLY BIOSCIENCES, INC., priority 2020, published 2023).

Where two headings read alike, the source gives them in different places.

The test system of the assay is HBV. The assay can be described thus: Viral load production from HepAD38 cells, qPCR of the HBV core sequence in supernatant. The format is cell-based. To be noted: Hepatitis B virus, HePAD38, 120 h, Table 1 ranges. Put shortly:
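EC50 and CC50 come from four-parameter logistic fits of supernatant HBV core DNA (TaqMan qPCR, DNA standards, compared with DMSO wells) and of CellTiter-Glo luminescence.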
(In general: In qPCR the cycle at which signal appears reflects the starting amount.)

The term EC50 denotes the concentration needed to bring the measured effect to its halfway point. On to `Cn1nc(C2CC3CC(Oc4ncccn4)CC3C2)c(C(=O)Nc2ccc(F)c(Cl)c2)c1N` (centres unmarked) [Example 231], for which, for the setting “HepAD38 cells, 5 days, HBV DNA in supernatant by qPCR, read-out: Activity (viral load lowering EC50)”, the EC50 was in the range of 0.01 to 0.05 µM.
For `Cn1nc(C2CC3CC(O)(Cc4ccc(S(C)(=O)=O)cn4)CC3C2)c(C(=O)Nc2ccc(F)c(Cl)c2)c1N` (centres unmarked) [Exmaple 165], the EC50 (read-out: Activity (viral load lowering EC50), HepAD38 cells, 5 days, HBV DNA in supernatant by qPCR) is less than 0.01 µM.
